Measurements published in US12048686B2, “Compositions and methods for activating NRF2-dependent gene expression” (The University of Chicago, priority 2018, dated 2024).
Entries after “also recorded” stand apart in the source; their conditions may differ.

Columns and labels:
Format in all cases: cell-based
[1] = test system: NRF2 target genes NQO1 and HMOX1; test: Quantitative RT-PCR of NRF2 target genes in IMR32 cells; details: MGx 1 mM
Description: FIG. 2A-F. Methylglyoxal modifies KEAP1 to form a covalent, high molecular weight dimer and activate NRF2 signaling. (a) Time-course, anti-FLAG Western blot analysis of whole cell lysates from HEK293T cells expressing FLAG-KEAP1 treated with DMSO or CBR-470-1. (b) Western blot monitoring of FLAG-KEAP1 migration in HEK293 T lysates after incubation with central glycolytic metabolites in vitro (1 and 5 mM, left and right for each metabolite). (c) FLAG-KEAP1 (red) and β-actin (green) from HEK293T cells treated with MGx (5 mM) for 8 hr. (d) Relative NQO1 and HMOX1 mRNA levels in IMR32 cells treated with MGx (1 mM) or water control (n=3). (e) LC-MS/MS quantitation of cellular MGx levels in IMR32 cells treated with CBR-470-1 relative to DMSO (n=4). (f) ARE-LUC reporter activity in HEK293T cells with transient shRNA knockdown of GLO1 (n=8). Univariate two-sided t-test (d, f); data are mean±SEM of biologically independent samples.
Quantitative RT-PCR. Cells were collected by trypsinization and subsequent centrifugation at 500 g. […] Quantitative RT-PCR reactions were measured on a Viia 7 Real-Time PCR system (Thermo) using a Clontech SYBR green-based master mix. Reactions were normalized to TUBG1 levels for each biological replicate and relative transcript abundance calculated using the comparative Ct method.

IMR32 cells = test: Targeted LC-MS measurement of cellular MGx levels in IMR32 cells; details: relative to DMSO
Source text: FIG. 8A-H. MGx and glyoxylase activity regulates NRF2 activation. CBR-470-1 causes elevated MGx levels in cells. (a) Schematic depicting chemical derivatization and trapping of cellular MGx for analysis by targeted metabolomics using two unique fragment ions. (b, c) Daughter ion fragments (b) and resulting MS/MS quantification of MGx levels (c) in IMR32 cells treated with CBR-470-1, relative to DMSO (n=4). (d) Quantitative LC-MS/MS measurement of cellular MGx levels in IMR32 cells treated for 2 hours with CBR-470-1 or co-treated for 2 hours with CBR-470-1 and NAC (2 mM) relative to DMSO (n=4).
Quantitative Metabolomic Profiling. […] Metabolite peak transitions and retention times are listed in Table 2 and were confirmed by running standards for measured glycolytic, PPP, CAC and co-factor metabolites. 2-phosphoglycerate and 3-phosphoglycerate isomers were quantified in aggregate (2PG/3PG). Relative metabolite abundance was quantified by integrated peak area for the given MRM-transition, and all metabolite levels were normalized to internal standard extracted ion intensity values for d3-serine. These parameters were used to quantify all metabolites, with the exception of 1,3-BPG and MGx, which required chemical derivitization to stable intermediates prior to LC-MS/MS quantification, as previously reported^20, 33. […]

Human lung fibroblasts = test: TGF-beta-induced collagen and SMA in human lung fibroblasts (Western blot); details: increasing doses, day 0, 1, 2
Description: FIG. 22. Human lung fibroblasts were treated with TGF-beta and increasing doses of CBR-470 and measured collagen and alpha-smooth muscle actin (a-SMA), a marker for myofibroblast differentiation at day 0, 1, and 2.
Fibrosis is defined by the overgrowth, hardening, and/or scarring of various tissues and is attributed to excess deposition of extracellular matrix components including collagen. Fibrosis is the end result of chronic inflammatory reactions induced by a variety of stimuli including persistent infections, autoimmune reactions, allergic responses, chemical insults, radiation, and tissue injury. Fibroblasts under stimulation by transforming growth factor (TGF)-β, a key cytokine in the pathogenesis of IPF, alter their gene expression profile with de novo expression of cytoskeletal and contractile proteins normally found within smooth muscle cells, and components of the extracellular matrix, including collagen. Fibroblast cells were treated with TGF-β for 24 or 48 hours or left untreated (0). Collagen was detected by Westernblot using an anti-collagen antibody (Cedarlane, CL50111AP-1, 1:3000 dilution). SMA was detected with an anti-SMA antibody from Sigma (T6074, 1:20000 dilution). […] Collagen and SMA production are biomarkers of fibrotic phenotypes in vivo (FIG. 22).

Compound	expression of NRF2 target genes NQO1 and HMOX1 [1]	cellular MGx levels (IMR32 cells)	alpha-smooth muscle actin (a-SMA), marker for myofibroblast differentiation (Human lung fibroblasts)	collagen protein (Human lung fibroblasts)
CC(=O)C=O [MGx, methylglyoxal, reference compound]	functionally activated expression of the downstream NRF2 target genes NQO1 and HMOX1			
CC(C)CN[C@H]1CS(=O)(=O)C[C@@H]1S(=O)(=O)c1ccc(Cl)cc1 [CBR-470-1]		significant elevation of cellular MGx levels in the first few hours of treatment	dose- and time-dependent inhibition of collagen and smooth-muscle actin (SMA) protein production; also recorded: inhibited myofibroblast differentiation and collagen protein expression in a dose dependent manner	dose- and time-dependent inhibition of collagen and smooth-muscle actin (SMA) protein production; also recorded: inhibited myofibroblast differentiation and collagen protein expression in a dose dependent manner
